“And” between values parts separate entries of the source, which are not always exact repeats. Identical values can stand only once.
Columns and labels:
[1] = biological target: T1, MDM2 (Homo sapiens, UniProt Q00987); experiment: MDM2 binding screen of Libraries 3 and 4: displacement of fluorescent probe F-M8 at 750 nM macrocycle; settings: 750 nM macrocycle; crude reaction; probe F-M8
How it was run: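 Competition with nutlin-3a was run using the fluorescein conjugate. Library members came from scaffolds reacted 6 h at room temperature with carboxylic acids (20 equiv.), HBTU and DABCO in DMSO. Quenching was overnight in Tris-Cl pH 7.4 buffer with 0.01% Tween20.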

[2] = biological target: T1, MDM2; experiment: Competition binding of M10 and nutlin-3a (F-M10 or FP53 probe displacement from MDM2, FP); settings: duplicates -1/-2; for F-M10 displacement (values are anisotropy): F-M10 macrocycle probe; for FP53 displacement (values are anisotropy): FP53 linear peptide probe
Method: With the fluorescein conjugate, we also performed a competition experiment with nutlin-3a that binds to a defined hydrophobic pocket of MDM2[34] and is a precursor of nutlin-based clinical candidates.
Supplementary Figure 13. Studying the binding site of M10 by competition binding
by fluorescence polarization. The displacement was measured in two independent experiments
The displacement was measured in two

T1 sequence (Q00987 whole entry): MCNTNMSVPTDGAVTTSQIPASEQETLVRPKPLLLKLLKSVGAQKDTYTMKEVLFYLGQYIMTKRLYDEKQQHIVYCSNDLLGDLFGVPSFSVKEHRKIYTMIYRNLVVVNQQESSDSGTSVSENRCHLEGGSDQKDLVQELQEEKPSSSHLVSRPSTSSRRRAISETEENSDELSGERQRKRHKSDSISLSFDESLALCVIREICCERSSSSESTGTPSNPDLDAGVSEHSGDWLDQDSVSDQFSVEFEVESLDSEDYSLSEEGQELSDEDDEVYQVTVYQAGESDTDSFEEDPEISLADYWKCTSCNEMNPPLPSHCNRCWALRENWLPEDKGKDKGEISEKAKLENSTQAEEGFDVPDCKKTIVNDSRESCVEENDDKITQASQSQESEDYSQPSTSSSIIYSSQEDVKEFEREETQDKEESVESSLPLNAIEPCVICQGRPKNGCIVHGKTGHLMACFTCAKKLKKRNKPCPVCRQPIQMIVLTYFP

## O=C(/C=C/c1ccc2c(c1)OCO2)NC[C@@H]1NC(=O)[C@H]2CCCN(C2)C(=O)CCSSCCNC(=O)[C@H](Cc2c[nH]c3ccccc23)NC1=O [M10]
[1]
  displacement of fluorescent probe from MDM2: 84%
[2]; Log[Inhibitor] M -4.0
  F-M10 displacement (values are anisotropy): 23 and 19
  FP53 displacement (values are anisotropy): 35 and 39
[2]; Log[Inhibitor] M -4.3
  F-M10 displacement (values are anisotropy): 19 and 11
  FP53 displacement (values are anisotropy): 34 and 40
[2]; Log[Inhibitor] M -4.6
  F-M10 displacement (values are anisotropy): 18 and 15
  FP53 displacement (values are anisotropy): 35 and 36
[2]; Log[Inhibitor] M -4.9
  F-M10 displacement (values are anisotropy): 18 and 10
  FP53 displacement (values are anisotropy): 31 and 36
[2]; Log[Inhibitor] M -5.2
  F-M10 displacement (values are anisotropy): 14 and 12
  FP53 displacement (values are anisotropy): 32 and 39
[2]; Log[Inhibitor] M -5.5
  F-M10 displacement (values are anisotropy): 15 and 12
  FP53 displacement (values are anisotropy): 31 and 40
[2]; Log[Inhibitor] M -5.8
  F-M10 displacement (values are anisotropy): 18 and 9
  FP53 displacement (values are anisotropy): 30 and 37
[2]; Log[Inhibitor] M -6.1
  F-M10 displacement (values are anisotropy): 17 and 10
  FP53 displacement (values are anisotropy): 32 and 36
[2]; Log[Inhibitor] M -6.4
  F-M10 displacement (values are anisotropy): 20 and 15
  FP53 displacement (values are anisotropy): 31 and 40
[2]; Log[Inhibitor] M -6.7
  F-M10 displacement (values are anisotropy): 24 and 19
  FP53 displacement (values are anisotropy): 42 and 51
[2]; Log[Inhibitor] M -7.0
  F-M10 displacement (values are anisotropy): 30 and 21
  FP53 displacement (values are anisotropy): 51 and 55
[2]; Log[Inhibitor] M -7.3
  F-M10 displacement (values are anisotropy): 40 and 26
  FP53 displacement (values are anisotropy): 54 and 63
[2]; Log[Inhibitor] M -7.6
  F-M10 displacement (values are anisotropy): 46 and 32
  FP53 displacement (values are anisotropy): 60 and 67
[2]; Log[Inhibitor] M -7.9
  F-M10 displacement (values are anisotropy): 52 and 42
  FP53 displacement (values are anisotropy): 60 and 65
[2]; Log[Inhibitor] M -8.2
  F-M10 displacement (values are anisotropy): 57 and 39
  FP53 displacement (values are anisotropy): 66 and 67
[2]; Log[Inhibitor] M -8.5
  F-M10 displacement (values are anisotropy): 57 and 42
  FP53 displacement (values are anisotropy): 63 and 67

From article PMC9250534, “Synthesis and direct assay of large macrocycle diversities by combinatorial late-stage modification at picomole scale” (Nature Communications, 2022)
